The structures appear in SMILES notation.

What is called Ki is the equilibrium dissociation constant of an inhibitor or competing ligand from its target. Read a low Ki as tighter binding.

The first assay deals with T1, hCRTH2 (Homo sapiens, UniProt Q9Y5Y4).
T1 sequence (Q9Y5Y4 1-395): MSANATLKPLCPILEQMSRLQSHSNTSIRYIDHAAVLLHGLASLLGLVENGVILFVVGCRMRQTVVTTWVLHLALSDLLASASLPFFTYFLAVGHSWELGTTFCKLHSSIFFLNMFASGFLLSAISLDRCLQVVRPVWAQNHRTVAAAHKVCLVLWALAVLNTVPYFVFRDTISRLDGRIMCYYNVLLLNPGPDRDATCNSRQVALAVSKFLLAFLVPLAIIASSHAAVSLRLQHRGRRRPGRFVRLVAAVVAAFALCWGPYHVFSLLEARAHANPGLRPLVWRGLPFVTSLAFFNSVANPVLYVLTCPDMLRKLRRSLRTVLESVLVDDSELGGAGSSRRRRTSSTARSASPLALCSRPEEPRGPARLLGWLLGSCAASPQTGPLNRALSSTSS
Nature of the assay: biochemical. The conditions noted are these: Ki (nM).
Experimental: Competing ligands were diluted in dimethylsulfoxide (Me2SO) that was kept constant at 1% (v/v) of the final incubation volume. The reaction was initiated by the addition of 8-20 g of membrane protein prepared from a human embryonic kidney (HEK)-hCRTH2 cell line. Total and non-specific binding were determined in the absence and the presence of 10 μM PGD2, respectively. Under these conditions, specific binding (total minus non-specific) of the radioligand to the receptor reached equilibrium within 50 min and was stable up to 180 min. The reaction was routinely conducted for 60 min at room temperature and terminated by rapid filtration through prewetted (0.3% polyethyleneimine) 96-well printed Filtermate™ (Wallac) using a Tomtec® harvester (Hamden, Conn.). After washing with cold buffer, the filter was dried for 2 minutes in microwave, and Meltilex Scintillator sheet (Wallac) was melted on for 2 min.
`O=C(O)CCC(=O)N(C1CC1)[C@@H]1c2ccccc2N(C(=O)OCc2ccc(F)cc2)[C@@H]2CCC[C@@H]21` (single isomer, unassigned) [compound 22, 4-[(4-Fluorophenyl)methyl]cis,cis-[(3-carboxy-1-oxopropyl)cyclopropylamino]-1,2,3,3a,9,9a-hexahydro-4H-cyclopenta[b]quinoline-4-carboxylate] had a Ki of 5.1 to 20 nM.

The same assay, now with this note: Ki, Radioligand Binding Assay A; 3.0 nM [3H]PGD2, HEK-hCRTH2 membranes.
`O=C(O)CCC(=O)N(C1CC1)C1c2ccc(Cl)cc2N(C(=O)c2ccc(OC(F)(F)F)cc2)C2CCC21` (single isomer, unassigned) [27K, 4-[[cis, cis-5-chloro-1,2,2a,3,8,8a-hexahydro-3-[4-(trifluoromethoxy)benzoyl]cyclobuta[b]quinolin-8-yl]cyclopropylamino]-4-oxobutanoic acid] showed a Ki of 1.5 nM.

As to `Cc1ccc2c(c1)C(N(C(=O)CCC(=O)O)C1CC1)C1CCCC1N2C(=O)c1ccc(OC(F)(F)F)cc1` (single isomer, unassigned) [compound 51, 4-[Cyclopropyl[cis,cis-2,3,3a,4,9,9a-hexahydro-7-methyl-4-[4-(trifluoromethoxy)benzoyl]-1H-cyclopenta[b]quinolin-9-yl]amino]-4-oxobutanoic acid], the Ki amounted to 6.9 nM.

On to `O=C(O)CCC(=O)N(C1CC1)[C@H]1c2cc(F)ccc2N(C(=O)c2ccc(OC(F)(F)F)cc2)[C@H]2CCC[C@H]21` [compound 17, 4-(cyclopropyl((3aS,9R,9aR)-7-fluoro-4-(4-(trifluoromethoxy)benzoyl)-2,3,3a,4,9,9a-hexahydro-1H-cyclopenta[b]quinolin-9-yl)amino)-4-oxobutanoic acid], for which the Ki came out at 5.1 nM.

Regarding `O=C(O)CCC(=O)N(C1CC1)C1c2ccccc2N(C(=O)c2ccco2)C2CCCC21` (racemic) [17BL, 4-(cyclopropyl(cis,cis-4-(furan-2-carbonyl)-2,3,3a,4,9,9a-hexahydro-1H-cyclopenta[b]quinolin-9-yl)amino)-4-oxobutanoic acid], the Ki was 36 nM.

On to `CCN(C(=O)CCC(=O)O)C1c2ccccc2N(C(=O)C2CC2c2ccccc2)C2CCCC12` (single isomer, unassigned) [compound 69, 4-[ethyl[cis, cis-2,3,3a,4,9,9a-hexahydro-4-[(2-phenyl-1-cyclopropyl)carbonyl]-1H-cyclopenta[b]quinolin-9-yl]amino]-4-oxobutanoic acid], for which the Ki worked out at 4.97 nM.

`CCOc1cnc(-c2ccc(C(=O)N3c4ccccc4C(N(C(=O)CCC(=O)O)C4CC4)C4CCCC43)cc2)nc1` (racemic) [18P, 4-[cyclopropyl[cis,cis-4-[4-(5-ethoxy-2-pyrimidinyl)benzoyl]-2,3,3a,4,9,9a-hexahydro-1H-cyclopenta[b]quinolin-9-yl]amino]-4-oxobutanoic acid] had a Ki of 28.5 nM.

On to `O=C(O)CCC(=O)N(C1CCC1)[C@@H]1c2ccccc2N(C(=O)c2cccc(OC(F)(F)F)c2)[C@@H]2CCC[C@@H]21` (single isomer, unassigned) [17DA, 4-[cyclobutyl[cis,cis-2,3,3a,4,9,9a-hexahydro-4-[3-(trifluoromethoxy)benzoyl]-1H-cyclopenta[b]quinolin-9-yl]amino]-4-oxobutanoic acid], for which the affinity corresponds to a Ki of 34.2 nM.

`O=C(O)CCC(=O)N(C1CC1)C1c2ccccc2N(C(=O)c2ccc(-c3cncs3)cc2)C2CCCC21` (racemic) [18o, 4-[cyclopropyl[cis,cis-2,3,3a,4,9,9a-hexahydro-4-[4-(5-thiazolyl)benzoyl]-1H-cyclopenta[b]quinolin-9-yl]amino]-4-oxobutanoic acid] gave a Ki of 9.8 nM.

As to `CCN(C(=O)CCC(=O)O)C1c2ccccc2N(C(=O)OCc2cc(F)cc(F)c2)C2CCCC12` (single isomer, unassigned) [22A, 4-[(3,5-difluorophenyl)methyl] cis, cis-[(3-carboxy-1-oxopropyl)ethylamino]-1,2,3,3a,9,9a-hexahydro-4H-cyclopenta[b]quinoline-4-carboxylate], the Ki was determined as 1080 nM.

For `CN(C(=O)CCC(=O)O)C1c2ccccc2N(C(=O)OCc2ccccc2)C2CCCC12` (racemic) [17U, 4-(phenylmethyl) cis,cis-9-[(3-carboxy-1-oxopropyl)methylamino]-1,2,3,3a,9,9a-hexahydro-4H-cyclopenta[b]quinoline-4-carboxylate], the Ki came to 605 nM.

The compound `O=C(O)c1ccccc1C(=O)N(C1CC1)[C@@H]1c2ccccc2N(C(=O)c2ccc(OC(F)(F)F)cc2)[C@@H]2CCC[C@@H]21` (racemic) [17Ci, 2-[[cyclopropyl[cis,cis-2,3,3a,4,9,9a-hexahydro-4-[4-(trifluoromethoxy)benzoyl]-1H-cyclopenta[b]quinolin-9-yl]amino]carbonyl]benzoic acid] returned a Ki of 838 nM. This Ki and that of the compound before are within 1.5-fold of each other.

With `O=C(O)CCCN(C1CC1)[C@@H]1c2ccccc2N(C(=O)c2ccc(OC(F)(F)F)cc2)[C@@H]2CCC[C@@H]21` (racemic) [compound 44, 4-[Cyclopropyl[cis,cis-2,3,3a,4,9,9a-hexahydro-4-[4-(trifluoromethoxy)benzoyl]-1H-cyclopenta[b]quinolin-9-yl]amino]butanoic acid], affinity was put at a Ki of 2.54 nM. Against the preceding compound, the Ki is about 330-fold lower.

In turn, `O=C(O)CCC(=O)N(C1CC1)C1c2ccc(Cl)cc2N(C(=O)OCc2ccccc2)C2CCCC21` (single isomer, unassigned) [9A, 4-(phenylmethyl) cis,cis-[(3-carboxy-1-oxopropyl)cyclopropylamino]-6-chloro-1,2,3,3a,9,9a-hexahydro-4H-cyclopenta[b]quinoline-4-carboxylate] registered a Ki of 4.7 nM.
